Results reported in patent US20230106220A1, “METHOD FOR TREATMENT OF ROSACEA” (Sol-Gel Technologies Ltd., priority 2019, published 2023).

Legend:
rosacea = details: BPO as the sole active agent; cited from earlier work
[1] = tested on: inflammatory lesions (papules, pustules) of patients with papulopustular rosacea; test: Inflammatory lesion count change from baseline, 12-week vehicle-controlled study of E-BPO cream; format: in vivo, human
Protocol: (§1) Description: A multi-center, double-blind, randomized, vehicle-controlled, dose-range study of encapsulated 5% benzoyl peroxide (E-BPO) Cream and vehicle cream was performed to assess the efficacy and safety of E-BPO compared to vehicle. Study duration was 12 weeks and included approximately 350 male and female patients afflicted with papulopustular rosacea. Patients were at least 18 years of age, and met the inclusion/exclusion criteria described herein.
(§2) Dosing: Patients were randomized in a 2:1 ratio to the study product or vehicle treatment group, respectively. […]
(§3) Patients were admitted into the study after meeting all inclusion/exclusion criteria, including a clinical diagnosis of rosacea and after written informed consent has been obtained. […] At each visit, a 5-point IGA scale of rosacea; rosacea erythema, and telangiectasia; and inflammatory (papules, pustules) lesion counts were performed and recorded.
(§4) Evaluation of efficacy: The first application of the test product was applied at the investigational site at the end of the Baseline visit (Day 0) under the supervision and instruction of the designated investigational site staff. […] The evaluator also assessed local application site irritation (dryness, scaling, pruritus, stinging and burning) at Baseline and Weeks 2, 4, 8 and 12 (end of study). […]

[2] = tested on: patients afflicted with papulopustular rosacea; test: IGA success (2-grade improvement to clear or almost clear), 12-week double-blind vehicle-controlled study of E-BPO cream; format: in vivo, human; details: four weeks
Protocol: as §1, §2, §3, §4

SMILES: O=C(OOC(=O)c1ccccc1)c1ccccc1 [BPO, Benzoyl peroxide]
- response of lesions (rosacea): unresponsive
- decrease in inflammatory lesions relative to the effect observed after treatment with vehicle cream ([1]; after at least 12 weeks of treatment): more than 1.5 x
- decrease in inflammatory lesions ([1]; after only 2 weeks of treatment, on average): about 40%
- success in IGA relative to the effect observed after treatment with SOOLANTRA [2]: more than twice
